pIC50: −log10 of the molar value. Where two headings read alike, the source gives them in different places.
Tests used:
c-Myc template DNA = test: Quadruplex binding assay (STOP / Taq polymerase arrest, capillary electrophoresis); format: biochemical; details: concentration at which 50% of the DNA was arrested (arrested:full-length 1:1)
Description: Generally, a 5′-fluorescent-labeled (FAM) primer (P45, 15 nM) was mixed with template DNA (15 nM) in a Tris-HCL buffer (15 mM Tris, pH 7.5) containing 10 mM MgCl2, 0.1 mM EDTA and 0.1 mM mixed deoxynucleotide triphosphates (dNTP's). In one example, the FAM-P45 primer (5′ -6FAM-[…] CAATT-3′) (SEQ ID NO. 17) and the c-Myc template DNA (5′-[…] […] […]-3′) (SEQ ID NO. 18) were synthesized and HPLC purified by Applied Biosystems. The mixture was denatured at 95° C. for 5 minutes and, after cooling down to room temperature, was incubated at 37° C. for 15 minutes.
After cooling down to room temperature, 1 mM KCl2 and the test compound (various concentrations) were added and the mixture incubated for 15 minutes at room temperature. The primer extension was performed by adding 10 mM KCl and Taq DNA Polymerase (2.5 U/reaction, Promega) and incubating at 70° C. for 30 minutes. The reaction was stopped by adding 1 μl of the reaction mixture to 10 μl Hi-Di Formamide mixed and 0.25 μl LIZ120 size standard. Hi-Di Formamide and LIZ120 size standard were purchased from Applied Biosystems. The partially extended quadruplex arrest product was between 61 or 62 bases long and the full-length extended product was 99 bases long. The products were separated and analyzed using capillary electrophoresis. Capillary electrophoresis was performed using an ABI PRISM 3100-Avant Genetic Analyzer. The assay was performed using compounds described above and results are shown in Table 1. μM concentrations reported in Table 1 are concentrations at which 50% of the DNA was arrested in the assay (ie., the ratio of shorter partially extended DNA (arrested DNA) to full-length extended DNA is 1:1).
Stop Assays. Stop assays are high throughput, first-pass screens for detecting drugs that bind to and stabilize the target G-quadruplex. Generally, DNA template oligonucleotide is created, which contains the nucleotide sequence of the “target” quadruplex against which drug screening is desired. A fluorescently labeled primer DNA is then annealed to the 3′ end of the template DNA. A DNA polymerase such as Taq polymerase is then introduced to synthesize a complementary strand of DNA by extending from the fluorescently labeled primer. When the progress of the Taq polymerase is unhindered, it synthesizes a full-length copy of the template. […] If, however, the test drug selectively binds to and stabilizes the quadruplex, the progress of polymerase arrests only at the quadruplex, and a characteristic “Stop Product” is synthesized.
Compounds are initially screened at a single concentration, and “hits” are re-assayed over a range of doses to determine an IC50 value (i.e., the concentration of drug required to produce an arrest product/full-length product ratio of 1:1). These products are visualized by capillary electrophoresis.

HCT-116 = test: MTS cell proliferation assay, HCT-116; format: cell-based
Description: (§1) MTS assays. Antiproliferative effects of anticancer drugs are tested by the CellTiter 96 AQueous assay (Promega, WI), which is a colorimetric assay for determining the number of viable cells. (See, e.g., Wang, L., et al., Methods Cell Sci (1996) 18:249-255). Generally, cells (2,000 to 5,000 cells/well) are seeded on 96 well flat bottom plates (Corning, NY) in 100 μl of culture medium without any anticancer drug on day 0, and the culture medium is exchanged for that contained anticancer drugs at various concentrations on day 1. After incubation for 3 days under normal growth conditions (on day 4), the monolayers are washed once in PBS, and the medium is switched to 100 μl of PBS in each of the 96 well plate. After mixing MTS and PMS at the ratio of 20:1, 20 μl of MTS/PMS solution is added to each of the 96 well plate and incubated for 4 hours in a humidified atmosphere of 5% CO2 at 37° C. The absorbance is read at 490 nm using FLUOstar Galaxy 96 well plate reader (BMG Labtechnologies, Germany).

HCT116 cells = test: HCT-116 colorectal cancer xenograft model, intravenous dosing; format: in vivo; details: IV bolus, nu/nu mice
Description: 6 wk old female nu/nu mice were purchased from Taconic Farms, Germantown N.Y. They were injected with 5×10^6 HCT116 cells SQ in right flank. When tumors reached sufficient size for study, they were randomized into groups. • Vehicle: 242.9 mm^3 • Test compound: 251.0 mm^3
Animals dosed by bolus injection—IV through lateral tail vein for five consecutive days. Caliper measurements were taken on Day 1, 4, 6.
6 wk old female nu/nu mice were purchased from Simonsen Labs, Gilroy, Calif. They were injected with 5×10^6 HCT116 cells SQ in right flank. When tumors reached sufficient size for study, they were randomized into groups. • Vehicle: 101.9 mm^3 • Test compound: 152.8 mm^3
Animals dosed by bolus injection—IV through lateral tail vein for fourteen consecutive days. Caliper measurements were taken on Day 1, 3, 5, 7, 10, 12, 14, and 18.
6 wk old female nu/nu mice were purchased from Simonsen Labs, Gilroy, Calif. They were injected with 5×10^6 HCT116 cells SQ in right flank. When tumors reached sufficient size for study, they were randomized into groups. • Vehicle: 114.6 mm^3 • Test compound: 106.1 mm^3 • Test compound: 84.1 mm^3
Animals dosed by bolus injection—IV through lateral tail vein for fourteen consecutive days. Caliper measurements were taken on Day 1, 4, 6, 8, 12, and 15.
6 wk old female nu/nu mice were purchased from Taconic Farms, Germantown N.Y. They were injected with 5×10^6 HCT116 cells SQ in right flank. When tumors reached sufficient size for study, they were randomized into groups. • Vehicle: 242.9 mm^3 • Test compound: 252.1 mm^3
Animals dosed by bolus injection—IV through lateral tail vein for five consecutive days. Caliper measurements were taken on Day 1, 4, and 6.
6 wk old female nu/nu mice were purchased from Taconic Farms, Germantown N.Y. They were injected with 5×10^6 HCT116 cells SQ in right flank. When tumors reached sufficient size for study, they were randomized into groups. • Vehicle: 242.9 mm^3 • Test compound: 236.1 mm^3
6 wk old female nu/nu mice were purchased from Taconic Farms, Germantown N.Y. They were injected with 5×10^6 HCT116 cells SQ in right flank. When tumors reached sufficient size for study, they were randomized into groups. • Vehicle: 242.9 mm^3 • Test compound: 254.7 mm^3
6 wk old female nu/nu mice were purchased from Taconic Farms, Germantown N.Y. They were injected with 5×10^6 HCT116 cells SQ in right flank. When tumors reached sufficient size for study, they were randomized into groups.
Animals dosed by bolus injection—IV through lateral tail vein for nine consecutive days. Caliper measurements were taken on Day 1, 3, 5, 7, and 9.
Animals dosed by bolus injection—IV through lateral tail vein for seven consecutive days. Caliper measurements were taken on Day 1, 3, 5, and 7.

MiaPaca = test: MTS cell proliferation assay, MiaPaca; format: cell-based; details: Table 1C
Description: as §1

[1] = Homo sapiens, HCT-116, HCT-116, Table 1A, read-out: HCT-116 MTs
[2] = 25 and 12.5 mg/kg, seven consecutive days
[3] = Homo sapiens, MIA PaCa-2, M CELL MiaPaca
[4] = Homo sapiens, HCT-116, M CELL HCT-116, Table 1C, read-out: M DATA
[5] = 25 mg/kg, five consecutive days
[6] = 12.5 mg/kg, fourteen consecutive days
[7] = different dose levels, fourteen consecutive days

| SMILES | pIC50 (c-Myc template DNA) | pIC50 (HCT-116; [1]) | further results |
| --- | --- | --- | --- |
| CN1CCCC1CCNC(=O)c1c(=O)c2cc(F)c(SCCc3cnccn3)cc2n2c3ccccc3n(C)c12 (centres unmarked) | 4.82 | 5.64 |  |
| CN1CCCC1CCNC(=O)c1c(=O)c2cc(SCCc3cnccn3)ccc2n2c1sc1ccccc12 (centres unmarked) | 5.00 | 5.21 |  |
| CN1CCCC1CCNC(=O)c1c(=O)c2ccc(N3CCC(c4cnccn4)C3)nc2n2c1sc1ccc(Cl)cc12 (centres unmarked) [drawing 656] |  |  | activity in HCT116 xenograft (HCT116 cells; [2]): excellent activity with minimal dose dependency; adverse effects (HCT116 cells; [2]): No adverse effects were observed |
| CN1CCCC1CCNC(=O)c1c(=O)c2cc(F)c(SCCc3cnccn3)cc2n2c1sc1ccccc12 (centres unmarked) [drawing 14] | 5.14 | 5.96 |  |
| O=C(NCCN1CCCC1)c1c(=O)c2cnc(N3CCCC3)nc2n2c1sc1ccc(Cl)cc12 [drawing 212] |  |  | pIC50 (HCT-116; M CELL HCT-116, Table 1C, read-out: M DATA): 6.68 |
| Cn1c2ccccc2n2c3cc(SCCc4cnccn4)c(F)cc3c(=O)c(C(=O)NCCN3CCCC3)c12 | 4.82 | 6.52 |  |
| O=C(NCCN1CCCC1)c1c(=O)c2ccc(N3CCN(c4ncccn4)CC3)nc2n2c1sc1ccc(Cl)cc12 [drawing 286] |  |  | pIC50 (MiaPaca; [3]): 5.60 |
| CN(C)CCN(C)c1ccc2c(=O)c(C(=O)NCCC3CCCN3C)c3sc4ccccc4n3c2n1 (centres unmarked) [drawing 385] |  |  | pIC50 (HCT-116; [4]): 7.70 |
| O=C(NCCN1CCCC1)c1c(=O)c2cnc(N3CCCC3)nc2n2c1sc1ccc(Cl)cc12 [drawing 213] |  |  | pIC50 (MiaPaca; M CELL MiaPaca): 6.52 |
| CC(=O)NC1CCN(c2ccnc3c2c(=O)c(C(=O)NCCN2CCCC2)c2sc4ccccc4n23)C1 (centres unmarked) [drawing 147] |  |  | pIC50 (MiaPaca; [3]): 6.15 |
| O=C(NCCN1CCCC1)c1c(=O)c2cnc(N3CCCC3)nc2n2c1sc1ccccc12 [drawing 654] |  |  | activity in HCT116 xenograft (HCT116 cells; [5]): activity; adverse effects (HCT116 cells; [5]): no adverse effects observed |
| O=C1CN(c2ccnc3c2c(=O)c(C(=O)NCCN2CCOCC2)c2sc4ccccc4n23)CCN1 [drawing 234] |  |  | pIC50 (MiaPaca; [3]): 5.18 |
| Cn1c2ccccc2n2c3cc(N4CCC(c5cnccn5)C4)c(F)cc3c(=O)c(C(=O)NCCN3CCCC3)c12 (centres unmarked) | 5.09 | 7.00 |  |
| COc1ccc2c(c1)sc1c(C(=O)NCCC3CCCN3C)c(=O)c3cc(F)c(SCCc4cnccn4)cc3n12 (centres unmarked) | 5.03 | 5.24 |  |
| O=C(NCCN1CCCC1)c1c(=O)c2ccc(NCCN3CCOCC3)nc2n2c1sc1ccccc12 [drawing 307] |  |  | pIC50 (HCT-116; [4]): 7.70 |
| CN1CCCC1CCNC(=O)c1c(=O)c2cc(F)c(N3CCC(c4cnccn4)C3)cc2n2c1sc1ccccc12 (centres unmarked) | 5.89 | 5.47 |  |
| CC(C)N1CCN(c2cc3c(=O)c(C(=O)NCCC4CCCN4C)c4sc5ccccc5n4c3cc2Cl)CC1 (centres unmarked) | < 4.82 |  |  |
| NC1CCN(c2nc3c(cc2F)c(=O)c(C(=O)NCCN2CCCC2)c2sc4ccccc4n23)C1 (centres unmarked) |  |  | activity in HCT116 xenograft (HCT116 cells; [5]): activity; adverse effects (HCT116 cells; [5]): no adverse effects observed |
| CC(=O)N1CCN(c2ccc3c(=O)c(C(=O)NCCN4CCCC4)c4n(C)c5ccccc5n4c3n2)CC1 |  |  | activity in HCT116 xenograft (HCT116 cells; [6]): activity; adverse effects (HCT116 cells; [6]): no adverse effects observed; activity in HCT116 xenograft (HCT116 cells; [7]): dose dependent activity; adverse effects (HCT116 cells; [7]): no adverse effects observed |
| CC(=O)N1CCN(c2nc3c(cc2F)c(=O)c(C(=O)NCCN2CCCC2)c2n(C)c4ccccc4n32)CC1 [drawing 655] |  |  | adverse effects (HCT116 cells; 25 and 12.5 mg/kg, nine consecutive days): no adverse effects observed; activity in HCT116 xenograft (HCT116 cells; high dose (25 mg/kg), nine consecutive days): limited activity; activity in HCT116 xenograft (HCT116 cells; mid dose (12.5 mg/kg), nine consecutive days): no activity |
| O=C(NCCN1CCCC1)c1c(=O)c2cc(F)c(SCCc3cnccn3)cc2n2c1sc1ccccc12 [drawing 15] | 5.24 | 6.24 |  |
| CC(C)N1CCN(c2nc3c(cc2F)c(=O)c(C(=O)NCCC2CCCN2C)c2sc4ccc(Cl)cc4n23)CC1 (centres unmarked) |  |  | activity in HCT116 xenograft (HCT116 cells; [5]): activity; adverse effects (HCT116 cells; [5]): no adverse effects observed |
| CC(=O)N1CCN(c2ncc3c(=O)c(C(=O)NCCN4CCCC4)c4sc5ccccc5n4c3n2)CC1 [drawing 653] |  |  | activity in HCT116 xenograft (HCT116 cells; [5]): activity; adverse effects (HCT116 cells; [5]): no adverse effects observed |

The next lines start with results.

| pIC50 (c-Myc template DNA) | pIC50 (HCT-116; [1]) | SMILES | further results |
| --- | --- | --- | --- |
| 5.77 | 5.45 | CN1CCCC1CCNC(=O)c1c(=O)c2cc(F)c(SCCc3cnccn3)cc2n2c1sc1cc(Cl)ccc12 (centres unmarked) |  |
| 4.94 | 5.46 | O=C(NCCN1CCCC1)c1c(=O)c2cc(F)c(N3CCC(c4cnccn4)C3)c(F)c2n2c1sc1ccccc12 (centres unmarked) |  |
| 4.82 | 6.52 | Cn1c2ccccc2n2c3cc(F)c(F)cc3c(=O)c(C(=O)NCCN3CCCC3)c12 |  |
| < 4.82 |  | CC(C)N1CCN(c2cc3c(cc2F)c(=O)c(C(=O)NCCN2CCCC2)c2n(C)c4ccccc4n32)CC1 |  |
| 4.98 | 6.15 | CN1CCCC1CCNC(=O)c1c(=O)c2cc(F)c(N3CCC(c4cnccn4)C3)cc2n2c3ccccc3n(C)c12 (centres unmarked) |  |
| 5.05 | 6.52 | CC(C)N1CCN(c2cc3c(cc2F)c(=O)c(C(=O)NCCN2CCCC2)c2sc4ccccc4n23)CC1 |  |
| 4.82 | 5.62 | Nc1ccccc1Sc1c(F)cc2c(=O)c(C(=O)NCCN3CCCC3)c3sc4ccccc4n3c2c1F |  |
| 4.82 | 6.52 | CC(C)N1CCN(c2cc3c(cc2F)c(=O)c(C(=O)NCCC2CCCN2C)c2n(C)c4ccccc4n32)CC1 (centres unmarked) |  |

Reference: US7816406B2, “Quinolone analogs” (Cylene Pharmaceuticals, Inc., priority 2004, dated 2010)
